Literature values, collected in patent US5585357A, “Heteroaryloxymethyl ketones as interleukin-1βconverting enzyme inhibitors” (Sanofi Winthrop Inc., priority 1996, dated 1996).

What was measured:
[1] = rat, oral administration
[2] = animal model of ulcerative colitis
[3] = PG-APS model of arthritis in rats
[4] = small open-label human trial, subcutaneous
[5] = test system: chronic myelogenous leukemia cells; conditions: cells removed from leukemia patients

CCOC(=O)C[C@H](NC(=O)[C@H](C)NC(=O)[C@@H](NC(=O)OCc1ccccc1)C(C)C)C(=O)COC(=O)c1c(Cl)cccc1Cl [SDZ 224-015]
inflammation and pyrexia [1]: Reduction of inflammation and pyrexia

IL-1ra: naturally occurring IL-1β receptor antagonist
tissue necrosis and number of inflammatory cells in the colon [2]: reduced tissue necrosis and the number of inflammatory cells in the colon | joint swelling [3]: supresses joint swelling | efficacy in Rheumatoid Arthritis [4]: shows efficacy | colony growth [5]: inhibit colony growth
